Reference: patent publication US20170056422A1, “PLASMODIUM LIVER-STAGE INHIBITORS AND RELATED METHODS” (Seattle Biomedical Research Institute, priority 2014, published 2017)
“Also recorded” adds a separate entry of the source. Read-outs that look alike come from different tables or passages of the source.

Legend:
P. yoelii LS parasites [1] = test: Quantification of LS parasites in P. yoelii-infected Hepa 1-6 cells by manual counting; format: cell-based, Plasmodium yoelii; conditions: for LS burden: 100 nM, 24 or 48 hours; for effect of adding pan-caspase inhibitor qVD-OPh on the LS reduction by the drug: qVD-OPh 20 μM
Protocol: Quantification of LS parasites after ABT-737, ABT-199, Obatoclax, Nutlin-3, or Serdemetan treatment by manual counting. In all, 1.5×10^5 Hepa 1-6 cells were seeded in DMEM complete medium in each well of an eight-well Permanox slide. Cells were infected with 5×10^4 P. yoelii sporozoites. Slides were centrifuged for 3 min at 515× g in a hanging-bucket centrifuge to aid in sporozoite invasion. After 90 min, we removed media that contained sporozoites that had not infected the cells and added fresh media only, or media containing ABT-737 (100 nM), ABT-199 (100 nM), Obatoclax (100 nM), Nutlin-3 (20 μM), or Serdemetan (10 μM) with or without qVD-OPh (20 μM). We allowed LSs to develop for 24 hours or 48 hours, at which time cells were fixed with 4% paraformaldehyde, blocked, and permeabilized for 1 hour in PBS with the addition of 0.1% Triton X-100 and 2% BSA. Staining steps were performed in PBS supplemented with 2% BSA. We stained cells using anti-sera to Plasmodium HSP70 and UIS4 proteins at 4° C. overnight and then washed several times, and antibodies were visualized with the use of AlexaFluor-488 goat anti-mouse and AlexaFluor-594 goat anti-rabbit secondary antibody (Life Technologies, Grand Island, N.Y., USA). We used DAPI stain to visualize both hepatocyte and parasite nuclei. Sporozoites that had not invaded and/or developed in hepatoma cells were distinguished by UIS4 circumferential staining and morphology. All LS parasites in each well were counted, and each assay was performed in biological triplicate.

p53 = test: Quantification of p53 by Western blotting in Hepa 1-6 cells; format: cell-based; conditions: immunoblot, 24 or 48 hours
Protocol: Quantification of p53 by Western Blotting. We plated 10^6 Hepa 1-6 cells per well of a 6-well plate in DMEM complete media and treated with complete media only, 20 μM Nutlin-3, 100 nM ABT-737, 100 nM Obatoclax, or 10 μM Serdemetan for 24 or 48 hours. Cells were lysed in SDS lysis buffer (2% SDS, 50 mM Tris-HCl, 5% glycerol, 5 mM EDTA, 1 mM NaF, 10 mM β-glycerophosphate, 1 mM PMSF, 1 mM activated Na3VO4, 1 mM DTT, 1% phosphatase inhibitor cocktail 2; Sigma-Aldrich), 1% PhosSTOP Phosphatase Inhibitor Cocktail Tablet (Roche), filtered overnight at 3000 rpm through AcroPrep Advance Filter Plates (Pall Corporation) and stored at −80° C. Western blots were performed according to manufacturer instruction with the iBlot Dry Transfer System (Life Technologies, Carlsbad, Calif., USA) using an antibody to p53 (Clone 1C12; Cell Signaling Technology) and then normalized to signal from an anti-β-actin (Cell Signaling Technology) Western blot. Signals from immunoblots were detected using either an Alexa 680-conjugated anti-rabbit antibody or an Alexa 800-conjugated anti-mouse antibody (LI-COR Biosciences). Membranes were visualized using an Odyssey infrared imaging system (LI-COR Biosciences).

Hepa 1-6 cells [2] = test: Cell permeabilization (cell death) assay, flow cytometry; format: cell-based; conditions: 48 hour treatment
Protocol: Cell Permeabilization Assay. Hepa 1-6 cells were seeded in a 24-well tissue culture-treated plate at 3×10^5 cells per well overnight. […] Briefly, cells were stained live with reconstituted dye (1:500) in 500 μL PBS on ice for 30 minutes, mixing periodically, washed twice with 500 μL PBS, and then fixed with 100 μL BD Cytofix/Cytoperm™ fixation/permeabilization (BD Biosciences, San Jose, Calif., USA) solution for 15 minutes on ice. Cells were stored in 200 μL 5 mM EDTA in PBS at 4° C. until analyzed using a BD™ LSR II flow cytometer (BD Biosciences) at 605 nm on the violet 405 nm laser, and resulting FCS files were analyzed with FlowJo 7.6.1 (Tree Star, Ashland, Oreg., USA).

P. yoelii [3] = test: Nutlin-3 and Obatoclax in vivo, blood stage patency in BALB/cJ mice; conditions: Nutlin-3 200 mg/kg twice daily, Obatoclax 5 mg/kg once daily; 1000 or 100 spz i.v.
Protocol: Nutlin-3 and Obatoclax in vivo experiments. 60 BALB/cJ mice (Jackson Laboratory, Bar Harbor, Me., USA) were treated with either vehicle control 5 mg/kg of Obatoclax, 200 mg/kg Nutlin-3, or both Obatoclax and Nutlin-3 by oral gavage once (Obatoclax) or twice (Nutlin-3) daily for 3 days. On the second day of treatment, mice were injected with 1000 or 100 P. yoelii sporozoites. Patency was checked by Giemsa-stained thin blood smear daily for the first 7 days, then every other day until day 14. Animal handling was conducted according to the Institutional Animal Care and Use Committee-approved protocols.

P. yoelii [4] = test: Specific action of Nutlin-3 in vivo, patency in wild-type and liver-specific p53 knockout mice; conditions: 1000 spz
Source text: Specific Action of Nutlin-3 in vivo experiment. Liver-specific p53 knock-out mice were generated by breeding p53 floxed mice (B6.129P2-Trp53tm1Brn/J) and cre-albumin (B6.Cg-Tg(Alb-cre)21Mgn/J). P53 floxed/unfloxed alleles were identified by size of band on a 2% agarose gel (270 bp for WT, 390 bp for floxed) using the primers: forward—[…] (SEQ ID NO:1) and reverse—[…] (SEQ ID NO:2). Cre was identified by the presence/absence of the mutant allele (heterozygotes vs. homozygotes were not distinguished) using the primers: forward—[…] (SEQ ID NO:3) and reverse—[…] (SEQ ID NO:4). All DNA was extracted using Qiagen DNEasy Blood & Tissue Kit (Qiagen Inc., Valencia, Calif., USA) per manufacturer's protocol. PCR was performed using BioMix Red (2×) from BioLine (BioLine USA Inc., Taunton, Mass., USA).
Both wild-type p53 (cre-alb) and liver-specific p53 knockout mice (cre-alb/flox-p53) were treated with either vehicle or Nutlin-3 as described in the previous in vivo method. On the second day of treatment, all mice were infected i.v. with 1000 P. yoelii sporozoites. Patency was checked by Giemsa-stained thin blood smear daily until all mice became patent. Animal handling was conducted according to the Institutional Animal Care and Use Committee-approved protocols.

[5] = cited from earlier work
P. yoelii LS parasites [6] = test: Quantification of LS parasites in P. yoelii-infected Hepa 1-6 cells by manual counting; format: cell-based, Plasmodium yoelii; conditions: Serdemetan 10 μM for 24 hours both before and after infection
[7] = reportedly; cited from earlier work
Hepa 1-6 cells [8] = test: Apoptosis in Hepa 1-6 cells (data not shown); format: cell-based

| Structure (SMILES) | LS burden (P. yoelii LS parasites [1]) | effect of adding pan-caspase inhibitor qVD-OPh on the LS reduction by the drug (P. yoelii LS parasites [1]) | p53 protein levels (p53) | uninfected hepatoma cell death (Hepa 1-6 cells [2]) | further results |
| --- | --- | --- | --- | --- | --- |
| CC1(C)CCC(CN2CCN(c3ccc(C(=O)NS(=O)(=O)c4ccc(NCC5CCOCC5)c([N+](=O)[O-])c4)c(Oc4cnc5[nH]ccc5c4)c3)CC2)=C(c2ccc(Cl)cc2)C1 [ABT-199] | minimal decrease; also recorded: did not reduce LS burden |  |  |  |  |
| CN(C)CC[C@H](CSc1ccccc1)Nc1ccc(S(=O)(=O)NC(=O)c2ccc(N3CCN(Cc4ccccc4-c4ccc(Cl)cc4)CC3)cc2)cc1[N+](=O)[O-] [ABT-737] | efficiently eliminates parasites | almost completely reversed | do not increase p53 levels | no increase |  |
| COc1ccc(C2=N[C@@H](c3ccc(Cl)cc3)[C@@H](c3ccc(Cl)cc3)N2C(=O)N2CCNC(=O)C2)c(OC(C)C)c1 [Nutlin-3] |  | completely unaltered | substantially boosted | no increase | liver stage parasites eliminated (P. yoelii LS parasites [1]; Nutlin-3 20 μM, 48 hours): 97%; onset of patency (P. yoelii [3]): delay in the onset of patency; onset of patency (P. yoelii [4]; cre-Alb (wild-type p53) mice, 200 mg/kg twice daily oral gavage): highly effective; onset of patency (P. yoelii [4]; liver-specific p53 knockout mice (p53-flox/cre-Alb), 200 mg/kg twice daily): did not delay the onset of patency |
| COC1=CC(c2cc3ccccc3[nH]2)=N/C1=C\c1[nH]c(C)cc1C [Obatoclax] |  |  |  | no increase | tolerability in humans ([5]; human, in vivo): well-tolerated |
| c1ccc2c(CCNc3ccc(Nc4ccncc4)cc3)c[nH]c2c1 [Serdemetan] |  | did not reverse | substantially boosted |  | P. yoelii LS burden versus Serdemetan concentration (P. yoelii LS parasites [1]; 48 hours): dose-dependent manner; LS-infected hepatocytes eliminated (P. yoelii LS parasites [1]; in vitro, half the dose of Nutlin-3): more than 90%; LS parasites (P. yoelii LS parasites [6]): completely eliminated; toxicity compared with Nutlin-3 [7]: lower toxicity; tolerability in humans ([5]; clinical trials): well-tolerated |
| CC(C)[C@H](NC(=O)c1ccc2ccccc2n1)C(=O)N[C@@H](CC(=O)O)C(=O)COc1c(F)cccc1F [qVD-OPh, N-(2-Quinolyl)-L-valyl-L-aspartyl-(2,6-difluorophenoxy) methylketone] |  |  |  |  | apoptosis in Hepa 1-6 cells (Hepa 1-6 cells [8]): reverses nearly all apoptosis |
